Experiment [1] can be described thus: Visual acuity in limbal stem cell insufficiency (LSCI) patients treated with topical steroid drops. It is filed as in vivo, human. To be noted: OU. As to the method:
(§1) In these experiments, the clinical charts and images of three patients diagnosed with LSCI were retrospectively reviewed. […] The patients were followed monthly until resolution. The patients were treated with topical steroid drops based on in vivo confocal microscopy findings that indicate the presence of inflammation. […] The images were quantified for dendritiform immune cell density (DC) and total counts of nerves and branches with respective density with ImageJ/Neuron J software.

The subject of experiment [2] is dendritic cells in the central cornea and superior limbus. Description: In vivo confocal microscopy of dendritiform immune cell density in LSCI patients. Set-up: species or system human. To be noted: for average density of dendritic cells in the superior limbus: after treatment, pooled LSCI subjects (loteprednol etabonate or rimexolone); for average dendritic cell density in the cornea: following three months of treatment, pooled LSCI subjects (loteprednol etabonate 4 eyes, rimexolone 2 eyes), 577.4±323.8 at presentation, p=0.001. The method, then: as §1

Here are results for two molecules from patent publication US9278120B2, “Inflammatory eye disorders” (Massachusetts Eye and Ear Infirmary, priority 2012, dated 2016).

For `CCOC(=O)O[C@]1(C(=O)OCCl)CC[C@H]2[C@@H]3CCC4=CC(=O)C=C[C@]4(C)[C@H]3[C@@H](O)C[C@@]21C` [loteprednol etabonate], the “visual acuity after treatment” value in experiment [1] (LSCI Patient 2, 0.5% QID initially, then taper for 11 months, 20/20 OD and 20/60 OS at presentation) is 20/20. In addition, in experiment [1] (LSCI Patient 3, 0.5% QID initially, then taper for 4 months, 20/30 OD and 20/20 OS at presentation), the “visual acuity after treatment” value was 20/20. For the same molecule, in experiment [2], the “average density of dendritic cells in the superior limbus” value amounted to 238.2±158.4 cells/mm^2 and the “average dendritic cell density in the cornea” value was 234.6±233.7 cells/mm^2.
With `CCC(=O)[C@@]1(C)[C@H](C)C[C@H]2[C@@H]3CCC4=CC(=O)C=C[C@]4(C)[C@H]3[C@@H](O)C[C@@]21C` [rimexolone], the “visual acuity after treatment” value in experiment [1] (LSCI Patient 1, 1% QID initially, then taper for 5 months, 20/25 OD and 20/40 OS at presentation) is listed as 20/20. Also, in experiment [2], the “average density of dendritic cells in the superior limbus” value came to 238.2±158.4 cells/mm^2 and the “average dendritic cell density in the cornea” value came out at 234.6±233.7 cells/mm^2.
